Source: patent publication US10495796B2, “Near-infrared cut filter” (AGC INC., priority 2012, dated 2019)

Assays:
[1] = Absorption characteristics: transmission spectrum of near-infrared absorbing layer of NIR filter (UV-visible spectrophotometer); format: physicochemical
Method: Further, the transmittance of the near-infrared absorbing layer can be measured by using an ultraviolet visible light spectrophotometer. For example, when the near-infrared absorbing layer is provided on a glass substrate, the transmittance is calculated by subtracting the transmittance of only the glass substrate. Note that the transmittance of light of the near-infrared absorbing layer refers to, unless otherwise stated, a ratio to light incident from a direction orthogonal to a main surface of a sample, the ratio of this light traveling straight inside the sample and transmitted to an opposite side. Further, when the transmittance is measured by making light incident from a direction other than the direction orthogonal to the main surface of the sample in the measurement of transmittance of light, an angle made by a straight line indicating the direction of the incident light to a line orthogonal to the main surface is called an incident angle.
In the condition (ii-3), the value calculated by nd(B)×(λa−λc) (hereinafter, this value may also be described as “Is value”) is a value to be an index indicating steepness of the absorption curve in the vicinity of the boundary between the visible light region and the near-infrared region with respect to a transmission spectrum of the near-infrared absorbing layer. When this value is 115 or less, the absorption curve in the vicinity of the boundary between the visible light region and the near-infrared region is steep with respect to the near-infrared absorbing layer, which can be said as preferable for the NIR filter.
That is, with respect to the transmission spectrum of the near-infrared absorbing layer, the smaller the difference (λa−λc) between the shortest wavelength λa with transmittance of 1% in the region of 650 nm to 800 nm and the wavelength λc with transmittance of 70% on a shorter wavelength side than the λa, the steeper the absorption curve in the vicinity of the boundary between the visible light region and the near-infrared region. Here, λa−λc also depends on a wavelength width having transmittance of 1% or less (λb−λa; λb is the longest wavelength with transmittance of 1% in the wavelength region of 650 nm to 800 nm). Accordingly, in order to compare and evaluate the steepness of the absorption curve in the above region of the transmission spectrum of the near-infrared absorbing layer, λb−λa is fixed to 30 nm. That is, λb−λa of the near-infrared absorbing layer which the present filter has is not limited to 30 nm.
Further, in the Is value, (λa−λc) is multiplied by the refractive index nd(B) of the transparent resin (B) contained in the near-infrared absorbing layer as a coefficient. This is to standardize the difference in steepness among resins.
Regarding transmittance (%/nm) of the NIR filters 1 to 109 obtained above, transmission spectra were measured and calculated by using an ultraviolet visible light spectrophotometer (U-4100 type spectrophotometer made by Hitachi High-Technologies Corporation). Analysis results of transmission spectra of the near-infrared absorbing layers which the NIR filters have are presented in Table 4, Table 5 and Table 6 for the NIR filters 1 to 25, 26 to 51, 52 to 75, respectively, and are presented in Table 7 and Table 8 for the NIR filters 76 to 94, 95 to 109, respectively. In Table 4 to Table 8, the ratios (parts by mass) of dyes to 100 parts by mass of the transparent resin (B) and film thicknesses of the near-infrared absorbing layers are described together.
Further, conditions of preferred transmission spectra of the near-infrared absorbing layers in the present filter and Is values obtained by the formula: nd(B)×(λa-λc) described in above (ii-3) are described in Table 4 to Table 8 together with λa in the condition (ii-1) and λb-λa in the condition (ii-2). Note that values described in Table 4 to Table 8 are values obtained by subtracting transmittance of a glass plate from transmittance of an NIR filter. […]

[2] = Solubility of dye to organic solvent; format: physicochemical; conditions: 50° C., mass % of the dye to the mass of the entire solution; for Solubility to organic solvent: MIBK: methyl isobutyl ketone
Method: Regarding the dyes (A11-1) to (A11-10) and (A11-20) to (A11-27) obtained above, solubility to organic solvent was evaluated as follows.
Three kinds of solvents, cyclohexanone, methyl isobutyl ketone (MIBK), toluene, were used as the organic solvent in the solubility test. Note that in Table 3, % is mass % of the dye to the mass of the entire solution. Further, the temperature of each organic solvent in the solubility test was 50° C.

[3] = transparent resin acrylic resin BR50, nd(B) 1.56, film thickness 2.3 μm
[4] = transparent resin polycarbonate EP5000, nd(B) 1.63, film thickness 2.4 μm
[5] = transparent resin polycarbonate SP3810, nd(B) 1.63, film thickness 1.0 μm
[6] = transparent resin polycarbonate SP3810, nd(B) 1.63, film thickness 2.8 μm

## CC(CCC(C(=O)Nc1cc2c(cc1C1=C([O-])C(=c3cc4c(cc3NC(=O)C(CCC(C)CC(C)(C)C)C(C)CC(C)(C)C)=[N+](C)C(C)C4(C)C)C1=O)C(C)(C)C(C)N2C)C(C)CC(C)(C)C)CC(C)(C)C (stereo not drawn) [Example A11-4]
[1]; [3]
  430 nm to 600 nm Average transmittance: 95%
  Is value (nd(B)×(λa-λc)): 110.9
  λa: 688 nm
  λa − λc: 71 nm
  λb: 718 nm
  λb − λa: 30 nm
  λc: 617 nm
  λmax: 705 nm
[1]; [4]
  430 nm to 600 nm Average transmittance: 95.7%
  Is value (nd(B)×(λa-λc)): 112.6
  λa: 693 nm
  λa − λc: 69 nm
  λb: 723 nm
  λb − λa: 30 nm
  λc: 624 nm
  λmax: 709 nm
[1]; [5]
  430 nm to 600 nm Average transmittance: 96.8%
  Is value (nd(B)×(λa-λc)): 112.8
  λa: 693 nm
  λa − λc: 69 nm
  λb: 723 nm
  λb − λa: 30 nm
  λc: 624 nm
  λmax: 705 nm
[1]; [6]
  430 nm to 600 nm Average transmittance: 95.9%
  Is value (nd(B)×(λa-λc)): 111.2
  λa: 693 nm
  λa − λc: 68 nm
  λb: 723 nm
  λb − λa: 30 nm
  λc: 625 nm
  λmax: 709 nm
[2]
  Solubility to organic solvent: Cyclohexanone: 10%< mass %
  Solubility to organic solvent: MIBK: 10%< mass %
  Solubility to organic solvent: Toluene: 10%< mass %

## CCCCCCC(=O)Nc1cc2c(cc1C1=C([O-])C(=c3cc4c(cc3NC(=O)CCCCCC)=[N+](C)C(C)C4(C)C)C1=O)C(C)(C)C(C)N2C (stereo not drawn) [Example A11-23, reference compound]
[2]
  Solubility to organic solvent: Cyclohexanone: 2.50% mass %
  Solubility to organic solvent: MIBK: <1.0% mass %
  Solubility to organic solvent: Toluene: 2.50% mass %

## CCCCC(CC)C(=O)Nc1cc2c(cc1C1=C([O-])C(=c3cc4c(cc3NC(=O)C(CC)CCCC)=[N+](CCC)C(C)C4(C)C)C1=O)C(C)(C)C(C)N2CCC (stereo not drawn) [Example A11-6]
[2]
  Solubility to organic solvent: Cyclohexanone: 10%< mass %
  Solubility to organic solvent: MIBK: 10%< mass %
  Solubility to organic solvent: Toluene: 10%< mass %

## CCCC(C)(C)C(=O)Nc1cc2c(cc1C1=C([O-])C(=c3cc4c(cc3NC(=O)C(C)(C)CCC)=[N+](C)C(C)C4(C)C)C1=O)C(C)(C)C(C)N2C (stereo not drawn) [Example A11-14]
[1]; [3]
  430 nm to 600 nm Average transmittance: 94.7%
  Is value (nd(B)×(λa-λc)): 110.9
  λa: 684 nm
  λa − λc: 71 nm
  λb: 714 nm
  λb − λa: 30 nm
  λc: 613 nm
  λmax: 700 nm
[1]; [4]
  430 nm to 600 nm Average transmittance: 95.5%
  Is value (nd(B)×(λa-λc)): 112.6
  λa: 689 nm
  λa − λc: 69 nm
  λb: 719 nm
  λb − λa: 30 nm
  λc: 620 nm
  λmax: 705 nm
[1]; [5]
  430 nm to 600 nm Average transmittance: 97.1%
  Is value (nd(B)×(λa-λc)): 112.8
  λa: 689 nm
  λa − λc: 69 nm
  λb: 719 nm
  λb − λa: 30 nm
  λc: 620 nm
  λmax: 700 nm
[1]; [6]
  430 nm to 600 nm Average transmittance: 95.6%
  Is value (nd(B)×(λa-λc)): 111.2
  λa: 689 nm
  λa − λc: 68 nm
  λb: 719 nm
  λb − λa: 30 nm
  λc: 621 nm
  λmax: 705 nm

## CCCC(=O)Nc1cc2c(cc1C1=C([O-])C(=c3cc4c(cc3NC(=O)CCC)=[N+](C)C(C)C4(C)C)C1=O)C(C)(C)C(C)N2C (stereo not drawn) [Example A11-21, reference compound]
[2]
  Solubility to organic solvent: Cyclohexanone: <1.0% mass %
  Solubility to organic solvent: MIBK: <1.0% mass %
  Solubility to organic solvent: Toluene: <1.0% mass %

## CCCCCCCCCC(CCCCCCC)C(=O)Nc1cc2c(cc1C1=C([O-])C(=c3cc4c(cc3NC(=O)C(CCCCCCC)CCCCCCCCC)=[N+](C)C(C)C4(C)C)C1=O)C(C)(C)C(C)N2C (stereo not drawn) [Example A11-3]
[2]
  Solubility to organic solvent: Cyclohexanone: 10%< mass %
  Solubility to organic solvent: MIBK: 10%< mass %
  Solubility to organic solvent: Toluene: 10%< mass %

## CCCC(C)C(=O)Nc1cc2c(cc1C1=C([O-])C(=c3cc4c(cc3NC(=O)C(C)CCC)=[N+](C)C(C)C4(C)C)C1=O)C(C)(C)C(C)N2C (stereo not drawn) [Example A11-10]
[2]
  Solubility to organic solvent: Cyclohexanone: 10%< mass %
  Solubility to organic solvent: MIBK: 1.00% mass %
  Solubility to organic solvent: Toluene: 3.00% mass %

## Cc1ccc(C)c(OCCCC(C)(C)C(=O)Nc2cc3c(cc2C2=C([O-])C(=c4cc5c(cc4NC(=O)C(C)(C)CCCOc4cc(C)ccc4C)=[N+](C)C(C)C5(C)C)C2=O)C(C)(C)C(C)N3C)c1 (stereo not drawn) [Example A11-13]
[1]; [3]
  430 nm to 600 nm Average transmittance: 94.8%
  Is value (nd(B)×(λa-λc)): 110.9
  λa: 683 nm
  λa − λc: 71 nm
  λb: 713 nm
  λb − λa: 30 nm
  λc: 612 nm
  λmax: 700 nm
[1]; [4]
  430 nm to 600 nm Average transmittance: 96.1%
  Is value (nd(B)×(λa-λc)): 111.0
  λa: 689 nm
  λa − λc: 68 nm
  λb: 719 nm
  λb − λa: 30 nm
  λc: 621 nm
  λmax: 705 nm
[1]; [5]
  430 nm to 600 nm Average transmittance: 97.3%
  Is value (nd(B)×(λa-λc)): 112.8
  λa: 689 nm
  λa − λc: 69 nm
  λb: 719 nm
  λb − λa: 30 nm
  λc: 620 nm
  λmax: 700 nm
[1]; [6]
  430 nm to 600 nm Average transmittance: 95.1%
  Is value (nd(B)×(λa-λc)): 112.8
  λa: 689 nm
  λa − λc: 69 nm
  λb: 719 nm
  λb − λa: 30 nm
  λc: 620 nm
  λmax: 705 nm

## CCCCC(CC)C(=O)Nc1cc2c(cc1C1=C([O-])C(=c3cc4c(cc3NC(=O)C(CC)CCCC)=[N+](CC)C(C)C4(C)C)C1=O)C(C)(C)C(C)N2CC (stereo not drawn) [Example A11-5]
[2]
  Solubility to organic solvent: Cyclohexanone: 10%< mass %
  Solubility to organic solvent: MIBK: 10%< mass %
  Solubility to organic solvent: Toluene: 10%< mass %

## CC(C)C(=O)Nc1cc2c(cc1C1=C([O-])C(=c3cc4c(cc3NC(=O)C(C)C)=[N+](C)C(C)C4(C)C)C1=O)C(C)(C)C(C)N2C (stereo not drawn) [Example A11-26, reference compound]
[2]
  Solubility to organic solvent: Cyclohexanone: <1.0% mass %
  Solubility to organic solvent: MIBK: <1.0% mass %
  Solubility to organic solvent: Toluene: <1.0% mass %

## CCN1c2cc(NC(=O)C(C)(C)CCCOc3cc(C)ccc3C)c(C3=C([O-])C(=c4cc5c(cc4NC(=O)C(C)(C)CCCOc4cc(C)ccc4C)=[N+](CC)C(C)C5(C)C)C3=O)cc2C(C)(C)C1C (stereo not drawn) [Example A11-8]
[2]
  Solubility to organic solvent: Cyclohexanone: 10%< mass %
  Solubility to organic solvent: MIBK: 10%< mass %
  Solubility to organic solvent: Toluene: 10%< mass %
